The values below come from BindingDB's records for patent US9796702 (Hoffmann-La Roche, 2017).

pEC50: −log10 of the molar value.

The target in data set [1] is T1, Cytochrome P450 11B2, mitochondrial (Homo sapiens, UniProt P19099).
T1 sequence (P19099 whole entry): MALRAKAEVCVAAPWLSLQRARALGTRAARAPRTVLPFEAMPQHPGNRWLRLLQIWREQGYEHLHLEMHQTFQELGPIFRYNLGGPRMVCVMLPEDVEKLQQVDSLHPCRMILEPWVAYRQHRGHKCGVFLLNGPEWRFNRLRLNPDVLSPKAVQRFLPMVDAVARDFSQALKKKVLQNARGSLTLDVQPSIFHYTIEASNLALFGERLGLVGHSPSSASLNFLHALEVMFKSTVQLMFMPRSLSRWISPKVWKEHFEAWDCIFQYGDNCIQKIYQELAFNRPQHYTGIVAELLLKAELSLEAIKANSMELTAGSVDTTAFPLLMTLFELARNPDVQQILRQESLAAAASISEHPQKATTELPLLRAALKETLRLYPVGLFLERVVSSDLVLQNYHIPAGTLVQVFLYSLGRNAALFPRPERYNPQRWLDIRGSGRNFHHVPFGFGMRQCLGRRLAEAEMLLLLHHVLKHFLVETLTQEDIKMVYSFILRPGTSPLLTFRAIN
The data set is described as follows: Inhibition Assay. From the text: (§1) The expression plasmids contains the ORF for either human/cyno CYP11B1 or CYP11B2 under the control of a suitable promoter (CMV-promoter) and a suitable resistance marker (neomycin). Using standard techniques the expression plasmid is transfected into G-402 cells and these cells are then selected for expressing the given resistance markers. Individual cell-clones are then selected and assessed for displaying the desired enzymatic activity using 11-Deoxycorticosterone (Cyp11B2) or 11-Deoxycortisol (Cyp11B1) as a substrate.G-402 cells expressing CYP11 constructs were established as described above and maintained in McCoy's 5a Medium Modified, ATCC Catalog No. 30-2007 containing 10% FCS and 400 μg/ml G418 (Geneticin) at 37° C. under an atmosphere of 5% CO2/95% air. Cellular enzyme assays were performed in DMEM/F12 medium containing 2.5% charcoal treated FCS and appropriate concentration of substrate (0.3-10 uM 11-Deoxycorticosterone, 11-Deoxycortisol or Corticosterone). For assaying enzymatic activity, cells were plated onto 96 well plates and incubated for 16 h. An aliquot of the supernatant is then transferred and analyzed for the concentration of the expected product (Aldosterone for CYP11B2; Cortisol for CYP11B1). The concentrations of these steroids can be determined using HTRF assays from CisBio analyzing either Aldosterone or Cortisol.

For data set [2], the target named is T2, Cytochrome P450 11B1, mitochondrial (Homo sapiens, UniProt P15538).
T2 sequence (P15538 whole entry): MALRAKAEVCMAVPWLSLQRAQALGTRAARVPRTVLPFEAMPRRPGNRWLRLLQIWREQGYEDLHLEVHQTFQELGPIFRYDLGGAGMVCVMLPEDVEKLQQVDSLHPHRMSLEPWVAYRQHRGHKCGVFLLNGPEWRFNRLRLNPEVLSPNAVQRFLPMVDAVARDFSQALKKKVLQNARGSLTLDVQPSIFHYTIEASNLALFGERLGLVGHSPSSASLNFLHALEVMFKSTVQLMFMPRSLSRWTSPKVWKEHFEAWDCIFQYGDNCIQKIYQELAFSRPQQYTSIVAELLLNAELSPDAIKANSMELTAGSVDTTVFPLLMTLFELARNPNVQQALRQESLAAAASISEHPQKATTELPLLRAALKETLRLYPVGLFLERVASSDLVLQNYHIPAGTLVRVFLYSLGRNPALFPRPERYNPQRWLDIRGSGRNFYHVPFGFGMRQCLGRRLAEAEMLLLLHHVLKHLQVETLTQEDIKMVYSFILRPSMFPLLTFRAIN
The data set is described as follows: Inhibition Assay.
Text: as §1

In general, pEC50 refers to the negative decadic logarithm of the EC50, by convention in mol/L. A lower pEC50 goes with a high EC50.

For `CCS(=O)(=O)N1CCC(Cc2c[nH]nc2-c2ccc3c(c2F)CCC(=O)N3C)CC1` [US9796702, 22], the negative-log EC50 (pEC50) in data set [1] was 11.70. `CC(=O)N1CCC(C(C)c2c[nH]nc2-c2cc3c(cc2F)N(C)C(=O)CC3)CC1` (racemic) [US9796702, 35] gave a pEC50 in data set [1] of 11.30.

Turning to `CC(=O)N1CCC([C@H](C)c2c[nH]nc2-c2ccc3c(c2F)CCC(=O)N3C)CC1` (single isomer, unassigned) [US9796702, 37], the negative logarithm of the EC50 (pEC50) in data set [2] is 8.34. Consider `CN1C(=O)CCc2cc(-c3n[nH]cc3CC3CCN(C(=O)c4cnn(C)c4)CC3)ccc21` [US9796702, 17], for which the pEC50 in data set [1] was 11.15. `CC(=O)N1CCC(C(C)c2c[nH]nc2-c2ccc3c(c2F)CCC(=O)N3C)CC1` (stereo not given) [US9796702, 36] showed a negative-log EC50 (pEC50) in data set [1] of 11.52.
